Assay results from patent US20040048380A1, “Chimeric vectors and their use for heterologous genes transfer” (priority 2003, published 2004).

What was measured:
HeLa cells [1] = test: Transduction efficiency by GFP reporter gene expression (FACS); type: cell-based; conditions: peptide 4.86 μM, molar excess of about 2000 times; FIG. 5b
Experimental: FIG. 5. Chimeric phages transduce eukaryotic cells in a receptor-dependent way. Cells are incubated for 1 hour at 4° C. and for 3 hours at 37° C. with 2×10^13 particles of Pb-GFP phage or ΔPb-GFP phage. After 72 hours said cells are analyzed with FACS. For competition tests they are pre-incubated with GRGDSP or GRGESP peptides (4.86 μM, corresponding to a molar excess of about 2000 times) for 1 hour at 4° C. and then incubated with chimeric phages. Data are analyzed with WinMDI2.8 software. 10^4 cells for each well are counted. a) White bars correspond to ΔPb-GFP phages; b) striped bars correspond to Pb-GFP b) phage.
The expression of GFP reporter gene (Green Fluorescent Protein) was carried out by FACS analysis as follows: 1×10^5 cells (HeLa, Cs-1/β3 or Cs-1) were plated in 6-portion wells. […] After the washings and 72 hours of incubation in fresh medium the expression levels of GFP protein were measured by FACS. The specificity of the measured signal was evaluated also in presence of GRGDSP or GRGESP peptides, pre-incubating the cells for 1 hour, with peptide concentration of 4.86 μM, corresponding to a molar excess of about 2000 times and maintaining said concentrations in the following incubations. 10^4 cells were measured for each sample. […]

HeLa cells [2] = test: Phage micropanning, internalization (37° C.), with or without kinase inhibitors; type: cell-based; conditions: Wortammannin 1 μM, ML-7 2 μM, FIG. 4
Text: FIG. 4. Effect of the inhibitors of Wortammanin and ML-7 kinases on cell internalization. 10^12 particles of ΔPb phage (white bars) or of Pb phage (striped bars) are adsorbed on HeLa cells. The internalized phage is recovered and titrated. […] Data are shown as percentages of control enrichments carried out without inhibitors. Th results are average values of three different tests carried out in two series; SD (Standard Deviation) is also shown.
The micropanning on HeLa and CS-1 or CS-1/β3 cells was carried out […] at 4° C. and at 37° C. in order to quantify the bond and the internalization of chimeric phages, respectively. […] The eluates were titrated by ELISA on a plate coated with an anti-M13 antibody detected with anti-pVIII-HRP antibody, using as standard a phage stock with known titer.
Phage internalization was evaluated on cells which have been pre-incubated for 30′ at 37° C. with chlorokine 100 nM (Sigma) alone or together with an inhibitor of PI3K (phosphatidylinositol-3OH kinase), 1 μM Wortammannin (Sigma) or with an inhibitor of myosin light chain kinase ML-7 2 μM hydrochloride (Calbiochem, La Jolla, Calif.). […]
In short, the experiment was carried out as follows: 7.5×10^4 cells/well are plated and incubated with 10^12 chimeric phage particles. The results are expressed as enrichment factors with respect to control phages. […]

Molecule	inhibition of the transduction of HeLa cells by ΔPb-GFP phage (HeLa cells [1])	effect of kinase inhibitor on internalization of Pb and ΔPb chimeric phages (HeLa cells [2])
GRGDSP	up to 90%	
O=S(=O)(c1cccc2c(I)cccc12)N1CCCNCC1 [ML-7]		not
GRGESP	not observed	
COC[C@H]1OC(=O)c2coc3c2[C@@]1(C)C1=C(C3=O)[C@@H]2CCC(=O)[C@@]2(C)C[C@H]1OC(C)=O [Wortammannin]		inhibited
